Measured values taken from US20080234286A1 (CHEMAGIS Ltd., priority 2007, published 2008).
Structures can show the parent of a compound that is named as a salt.

What was measured:
Assay type in all cases: physicochemical
[1] = Physical nature / hygroscopicity of the obtained solid (observation); details: as obtained after drying
[2] = Water content by Karl Fischer titration
Method: The water content measurements were carried out using a Karl Fischer Titrator (Mettler Toledo Model DL-53), according to standard procedures.

[3] = Bulk and tapped density (Vankel tapped density tester)
Method: Bulk and tapped densities were measured using Varian's Vankel tapped density tester model 50-2300.

[4] = Storage stability of packed compressed tablets (amorphous form, purity by HPLC)
Text: The term “remains stable”, as defined herein, refers to lack of formation of impurities, while being stored as described herein (see Example 11).
The compressed tablets were packed in a packing comprising internal sealed polyethylene bag, containing the tablets, which was inserted into a middle opaque (e.g., black) polyethylene bag, which was then sealed, wherein the packaging was sealed effectively to prevent penetration of humidity and/or oxygen. The polyethylene bag was packed and sealed in a laminated aluminum bag containing silica.
The samples were packed in the above-mentioned packaging and stored at room temperate and at 40° C. Samples were withdrawn periodically after 5, 8, 13 and 30 days and the purity of the withdrawn material was checked by HPLC.

[5] = Retention of amorphous form after compressing at high pressure, checked by X-ray diffractometer; details: about 7.5 tons/cm^2 for 15 minutes
Method: X-ray diffraction data were acquired using a PHILIPS X-ray diffractometer model PW1050-70. System description: Kα1=1.54178 Å, voltage 40 kV, current 28 mA, diversion slit=1°, receiving slit=0.2 mm, scattering slit=1° with a Graphite monochromator. Measurements of 2θ values typically are accurate to within ±0.2 degrees. Experiment parameters: pattern measured between 2θ=3° and 2θ=30° with 0.05° increments; count time was 0.5 second per increment. […]
The four samples, marked as 1-4, were checked by X-ray diffractometer after compressing and the results are detailed in Table 5.

Row | Structure (SMILES) | % water in the product [2] [%] | other results
1 | Cc1ccc(NC(=O)c2ccc(CN3CCN(C)CC3)cc2)cc1Nc1nccc(-c2cccnc2)n1 [Example 1, imatinib mesylate] | 4.1 | physical nature of the obtained solid (hygroscopicity, flow) [1]: non-hygroscopic and free-flowing
2 | Cc1ccc(NC(=O)c2ccc(CN3CCN(C)CC3)cc2)cc1Nc1nccc(-c2cccnc2)n1 [Example 2, imatinib mesylate] |  | bulk density [3]: 0.29 g/mL; tapped density [3]: 0.39 g/mL
3 | Cc1ccc(NC(=O)c2ccc(CN3CCN(C)CC3)cc2)cc1Nc1nccc(-c2cccnc2)n1 [Example 3, imatinib mesylate] | 4.1 | 
4 | Cc1ccc(NC(=O)c2ccc(CN3CCN(C)CC3)cc2)cc1Nc1nccc(-c2cccnc2)n1 [Example 4, imatinib mesylate] | 3.7 | 
5 | Cc1ccc(NC(=O)c2ccc(CN3CCN(C)CC3)cc2)cc1Nc1nccc(-c2cccnc2)n1 [Example 5, imatinib mesylate] | 4.8 | 
6 | Cc1ccc(NC(=O)c2ccc(CN3CCN(C)CC3)cc2)cc1Nc1nccc(-c2cccnc2)n1 [Example 6, imatinib mesylate] | 3.8 | 
7 | Cc1ccc(NC(=O)c2ccc(CN3CCN(C)CC3)cc2)cc1Nc1nccc(-c2cccnc2)n1 [Example 7, imatinib mesylate] | 4.3 | 
8 | Cc1ccc(NC(=O)c2ccc(CN3CCN(C)CC3)cc2)cc1Nc1nccc(-c2cccnc2)n1 [Example 8, imatinib mesylate] | 3.8 | 
9 | Cc1ccc(NC(=O)c2ccc(CN3CCN(C)CC3)cc2)cc1Nc1nccc(-c2cccnc2)n1 [Example 9, imatinib mesylate] | 4.9 | 
10 | Cc1ccc(NC(=O)c2ccc(CN3CCN(C)CC3)cc2)cc1Nc1nccc(-c2cccnc2)n1 [Example 10, imatinib mesylate] | 3.2 | 
11 | Cc1ccc(NC(=O)c2ccc(CN3CCN(C)CC3)cc2)cc1Nc1nccc(-c2cccnc2)n1 [Reference Example 1, imatinib mesylate, reference compound] | 2.2 | physical nature of the obtained solid (hygroscopicity, flow) [1]: glassy deliquescent material
12 | Cc1ccc(NC(=O)c2ccc(CN3CCN(C)CC3)cc2)cc1Nc1nccc(-c2cccnc2)n1 [Reference Example 2, imatinib mesylate, reference compound] | 1.7 | physical nature of the obtained solid (hygroscopicity, flow) [1]: very electrostatic and tended to agglomerate
13 | Cc1ccc(NC(=O)c2ccc(CN3CCN(C)CC3)cc2)cc1Nc1nccc(-c2cccnc2)n1 [amorphous imatinib mesylate, imatinib mesylate] |  | stability and amorphous form on storage ([4]; stored at 25° C. for at least a month): remains stable and maintains its amorphous form; stability and amorphous form on storage ([4]; stored at 40° C. for at least a month): remains stable and maintains its amorphous form; solid form after being compressed [5]: remains in amorphous form
